In brackets after ≈: the same amount, converted by molar mass.
What was measured:
[1] = tested on: Staphylococcus aureus MTCC 96; test: MIC by microbroth dilution, Staphylococcus aureus MTCC 96; format: cell-based; conditions: 37° C., 16-18 hrs; for MIC: MTCC96, Mueller Hinton Broth, read-out: MIC, in vitro activity, Sa1; for MIC, in vitro activity, Sa1: Mueller Hinton Broth
Method: (§1) The antibacterial spectrum and potency of a particular compound may be determined in a standard test system.
(§2) The minimum inhibitory concentrations (MIC's) of the compounds for the microorganisms listed in Table A were determined by preparing working solution for each compound of concentration of 128 μg/ml after dissolving it in DMSO. […] 30 μg/ml of Standard suspension of each organism which was prepared with turbidity equivalent to the 1:10 diluted 0.5 McFarland standard with density 10^7 CFU/ml, was added to each well to get approximately a density of 10^5 CFU/ml. These 96-well Tissue culture plate containing the test samples and positive and negative controls, were incubated at 37° C. for 16-18 hrs. The wells were visually inspected for growth and were also read at 630 nm by Automated Microplate Reader [(EL800) Trinity Biotech.] and the MIC's were recorded as the lowest concentration of drug which inhibits the growth of bacteria.
(§3) • Bp: Bacillus pumilus MTCC 1607 • S.e.: Staphylococcus epidermidis MTCC 155 • S.p.: Staphylococcus pyogenes MTCC 442 • S.a.1: Staphylococcus aureus MTCC 96 • S.a.2: Staphylococcus aureus ATCC 14154 • S.a.3: Staphylococcus aureus ATCC 25923 • S.a.4: Staphylococcus aureus ATCC 29213 • E.f.1: Enterococcus faecalis MTCC 439 • E.f.2: Enterococcus faecalis ATCC 14506 • K.0p.: Klebsiella pneumoniae ATCC 10031

[2] = tested on: Staphylococcus aureus ATCC 14154; test: MIC by microbroth dilution, Staphylococcus aureus ATCC 14154; format: cell-based; conditions: ATCC14154, Mueller Hinton Broth, 37° C., 16-18 hrs, read-out: MIC, in vitro activity, Sa2
Method: as §1, §2, §3

[3] = tested on: Staphylococcus epidermidis MTCC 155; test: MIC by microbroth dilution, Staphylococcus epidermidis MTCC 155; format: cell-based; conditions: MTCC155, Mueller Hinton Broth, 37° C., 16-18 hrs, read-out: MIC, in vitro activity, Se
Method: as §1, §2, §3

[4] = tested on: Staphylococcus aureus ATCC 29213; test: MIC by microbroth dilution, Staphylococcus aureus ATCC 29213; format: cell-based; conditions: ATCC29213, Mueller Hinton Broth, 37° C., 16-18 hrs, read-out: MIC, in vitro activity, Sa4
Method: as §1, §2, §3

[5] = tested on: Staphylococcus aureus ATCC 25923; test: MIC by microbroth dilution, Staphylococcus aureus ATCC 25923; format: cell-based; conditions: ATCC25923, Mueller Hinton Broth, 37° C., 16-18 hrs, read-out: MIC, in vitro activity, Sa3
Method: as §1, §2, §3

[6] = tested on: Enterococcus faecalis MTCC 439; test: MIC by microbroth dilution, Enterococcus faecalis MTCC 439; format: cell-based; conditions: 37° C., 16-18 hrs; for MIC: MTCC439, Mueller Hinton Broth, read-out: MIC, in vitro activity, Ef1
Method: as §1, §2, §3

[7] = tested on: Staphylococcus pyogenes MTCC 442; test: MIC by microbroth dilution, Staphylococcus pyogenes MTCC 442; format: cell-based; conditions: MTCC442, Mueller Hinton Broth, 37° C., 16-18 hrs, read-out: MIC, in vitro activity, Sp
Method: as §1, §2, §3

[8] = tested on: Pseudomonas aeruginosa ATCC 27853; test: MIC by microbroth dilution, Pseudomonas aeruginosa ATCC 27853; format: cell-based; conditions: 37° C., 16-18 hrs; for MIC: ATCC27853, Mueller Hinton Broth, read-out: MIC, in vitro activity, Pa; for MIC, in vitro activity, Pa: Mueller Hinton Broth
Method: as §1, §2
P.a.: Pseudomonas aeruginosa ATCC 27853

[9] = tested on: Enterococcus faecalis ATCC 14506; test: MIC by microbroth dilution, Enterococcus faecalis ATCC 14506; format: cell-based; conditions: ATCC14506, Mueller Hinton Broth, 37° C., 16-18 hrs, read-out: MIC, in vitro activity, Ef2
Method: as §1, §2, §3

[10] = tested on: Bacillus pumilus MTCC 1607; test: MIC by microbroth dilution, Bacillus pumilus MTCC 1607; format: cell-based; conditions: 37° C., 16-18 hrs; for MIC: MTCC1607, Mueller Hinton Broth, read-out: MIC, in vitro activity, Bp; for MIC, in vitro activity, Bp: Mueller Hinton Broth
Method: as §1, §2, §3

Compound | MIC [1] [µg/mL] | MIC [2] [µg/mL] | MIC [3] [µg/mL] | MIC [4] [µg/mL] | MIC [5] [µg/mL] | MIC [6] [µg/mL] | MIC [7] [µg/mL] | MIC [8] [µg/mL] | MIC [9] [µg/mL] | MIC [10] [µg/mL] | melting point [°C] | MIC, in vitro activity, Sa1 [1] [µg/mL] | MIC, in vitro activity, Pa [8] [µg/mL] | MIC, in vitro activity, Bp [10] | MIC, in vitro activity, Ef1 ([6]; Mueller Hinton Broth) [µg/mL]
O=C(O)c1cn(C2CC2)c2cc(N3CCNCC3)c(F)cc2c1=O [Ciprofloxacin, ciprofloxacin, reference compound] | 0.25 (≈ 0.754 µM) | 0.5 (≈ 1.51 µM) | 0.25 (≈ 0.754 µM) | 0.25 (≈ 0.754 µM) | 0.5 (≈ 1.51 µM) | 0.25 (≈ 0.754 µM) | 0.5 (≈ 1.51 µM) | 0.5 (≈ 1.51 µM) | 0.25 (≈ 0.754 µM) | < 0.12 |  |  |  |  | 
COc1c(N2CCc3sccc3C2)c(F)cc2c(=O)c(C(=O)O)cn(C3CC3)c12 [Compound 13, 1-Cyclopropyl-7-(6,7-dihydro-4H-thieno[3,2-c]pyridin-5-yl)-6-fluoro-8-methoxy-4-oxo-1,4-dihydro-quinoline-3-carboxylic acid] | ≤ 0.12 | ≤ 0.12 | ≤ 0.12 | 0.25 (≈ 0.603 µM) | 0.5 (≈ 1.21 µM) | ≤ 0.12 | ≤ 0.12 | 16 (≈ 38.6 µM) | 0.25 (≈ 0.603 µM) | ≤ 0.12 | 173 to 175 |  |  |  | 
O=C(O)c1cn(C2CC2)c2cc(N3CCc4sccc4C3)c(F)cc2c1=O [Compound 14, 1-Cyclopropyl-7-(6,7-dihydro-4H-thieno[3,2-c]pyridin-5-yl)-6-fluoro-4-oxo-1,4-dihydro-quinoline-3-carboxylic acid] | 0.25 (≈ 0.65 µM) | 0.25 (≈ 0.65 µM) | 0.25 (≈ 0.65 µM) | 0.5 (≈ 1.3 µM) | 0.5 (≈ 1.3 µM) |  |  |  |  | ≤ 0.12 |  |  |  |  | 
COc1c(N2CCc3sccc3C2)c(F)c([N+](=O)[O-])c2c(=O)c(C(=O)O)cn(C3CC3)c12 [Compound 15, 1-Cyclopropyl-7-(6,7-dihydro-4H-thieno[3,2-c]pyridin-5-yl)-6-fluoro-8-methoxy-5-nitro-4-oxo-1,4-dihydro-quinoline-3-carboxylic acid] | 1 (≈ 2.18 µM) |  |  |  |  |  |  |  |  | 0.25 (≈ 0.544 µM) |  |  |  |  | 
O=C(O)c1cn(C2CC2)c2c(F)c(N3CCc4sccc4C3)c(F)c(F)c2c1=O [Compound 16, 1-Cyclopropyl-7-(6,7-dihydro-4H-thieno[3,2-c]pyridin-5-yl)-5,6,8-fluoro-4-oxo-1,4-dihydro-quinoline-3-carboxylic acid] |  |  |  |  |  |  |  |  |  |  |  | 0.25 (≈ 0.595 µM) | >64 | 0.25 µg/mL (≈ 0.595 µM) | 
Nc1c(F)c(N2CCc3sccc3C2)c(F)c2c1c(=O)c(C(=O)O)cn2C1CC1 [Compound 17, 5-Amino-1-cyclopropyl-7-(6,7-dihydro-4H-thieno[3,2-c]pyridin-5-yl)-6,8-difluoro-4-oxo-1,4-dihydro-quinoline-3-carboxylic acid] | ≤ 0.12 | ≤ 0.12 | ≤ 0.12 | 0.25 (≈ 0.599 µM) | 0.5 (≈ 1.2 µM) | ≤ 0.12 | ≤ 0.12 | 16 (≈ 38.3 µM) | 0.25 (≈ 0.599 µM) | ≤ 0.12 |  |  |  |  | 
COc1c(N2CCc3sc([N+](=O)[O-])cc3C2)c(F)cc2c(=O)c(C(=O)O)cn(C3CC3)c12 [Compound 19, 1-Cyclopropyl-6-fluoro-8-methoxy-7-(2-nitro-6,7-dihydro-4H-thieno[3,2-c]pyridin-5-yl)-4-oxo-1,4-dihydro-quinoline-3-carboxylic acid] | 0.25 (≈ 0.544 µM) |  | ≤ 0.12 |  |  | ≤ 0.12 | ≤ 0.12 | 1 (≈ 2.18 µM) | 0.25 (≈ 0.544 µM) | ≤ 0.12 |  |  |  |  | 
COc1c(N2CCc3sc(C=O)cc3C2)c(F)cc2c(=O)c(C(=O)O)cn(C3CC3)c12 [Compound 20, 1-Cyclopropyl-6-fluoro-7-(2-formyl-6,7-dihydro-4H-thieno[3,2-c]pyridin-5-yl)-8-methoxy-4-oxo-1,4-dihydro-quinoline-3-carboxylic acid] | ≤ 0.12 |  | 0.25 (≈ 0.565 µM) |  |  | ≤ 0.12 | 0.25 (≈ 0.565 µM) | 8 (≈ 18.1 µM) |  | ≤ 0.12 |  |  |  |  | 
COc1c(N2CCc3sc(CO)cc3C2)c(F)cc2c(=O)c(C(=O)O)cn(C3CC3)c12 [Compound 21, 1-Cyclopropyl-6-fluoro-7-(2-hydroxymethyl-6,7-dihydro-4H-thieno[3,2-c]pyridin-5-yl)-8-methoxy-4-oxo-1,4-dihydro-quinoline-3-carboxylic acid] | 0.25 (≈ 0.562 µM) |  | 0.25 (≈ 0.562 µM) |  |  | 0.25 (≈ 0.562 µM) |  | 16 (≈ 36 µM) |  | ≤ 0.12 |  |  |  |  | 
COc1c(N2CCc3sc(C(=O)O)cc3C2)c(F)cc2c(=O)c(C(=O)O)cn(C3CC3)c12 [Compound 22, 7-(2-carboxy-6,7-dihydro-4H-thieno[3,2-c]pyridin-5-yl)-1-cyclopropyl-6-fluoro-8-methoxy-4-oxo-1,4-dihydro-quinoline-3-carboxylic acid] | 4 (≈ 8.72 µM) |  |  |  |  | 8 (≈ 17.4 µM) |  | > 16 |  | 0.5 (≈ 1.09 µM) |  |  |  |  | 
COc1c(N2CCc3occc3C2C)c(F)cc2c(=O)c(C(=O)O)cn(C3CC3)c12 (stereo not drawn) [Compound 23, 1-Cyclopropyl-6-fluoro-8-methoxy-7-(4-methyl-6,7-dihydro-4H-fluoro[3,2-c]pyridin-5-yl)-4-oxo-1,4-dihydro-quinoline-3-carboxylic acid] |  |  |  |  |  |  |  |  |  |  |  | 8 (≈ 19.4 µM) | >16 | ≦0.12 μg/ml | 2 (≈ 4.85 µM)
COc1c(N2CCNC(C)C2)c(F)cc2c(=O)c(C(=O)O)cn(C3CC3)c12 (stereo not drawn) [Gatifloxacin, gatifloxacin, reference compound] | ≤ 0.12 | ≤ 0.12 | ≤ 0.12 | 0.12 (≈ 0.32 µM) | 0.25 (≈ 0.666 µM) | 0.5 (≈ 1.33 µM) | 0.5 (≈ 1.33 µM) | 4 (≈ 10.7 µM) | 0.5 (≈ 1.33 µM) | ≤ 0.12 |  |  |  |  | 
